Measurements from ChEMBL document CHEMBL5247595, “Synthesis, antitumor, and apoptosis-inducing activities of novel 5-arylidenethiazolidine-2,4-dione derivatives: Histone deacetylases inhibitory activity and molecular docking study” (Eur J Med Chem, 2022).
Values belong to the compound of their own block, whether it stands above or below them.

How the values were obtained:
[1] = tested on: HepG2; test: cells; type: functional, cell-based; settings: Homo sapiens, HepG2, 48 h
Description: Cytotoxicity against human HepG2 cells assessed as inhibition of cell growth measured after 48 hrs by MTT assay

[2] = tested on: HCT-116; test: cells; type: functional, cell-based; settings: Homo sapiens, HCT-116, 48 h
Description: Cytotoxicity against human HCT-116 cells assessed as inhibition of cell growth measured after 48 hrs by MTT assay

[3] = tested on: MCF7; test: cells; type: functional, cell-based; settings: Homo sapiens, MCF7, 48 h
Description: Cytotoxicity against human MCF7 cells assessed as inhibition of cell growth measured after 48 hrs by MTT assay

[4] = tested on: PC-3; test: Cytotoxicity against human PC-3 cells assessed as inhibition of cell growth measured after 48 hrs by MTT assay; type: functional, cell-based; settings: PC-3, 48 h
[5] = tested on: HeLa; test: cells; type: functional, cell-based; settings: Homo sapiens, 48 h
Description: Cytotoxicity against human HeLa cells assessed as inhibition of cell growth measured after 48 hrs by MTT assay

[6] = tested on: MCF7; test: Induction of apoptosis in human MCF7 cells assessed as fold increase in BAX expression by ELISA assay; type: functional
[7] = tested on: HCT-116; test: Induction of apoptosis in human HCT-116 cells assessed as fold increase in BAX expression by ELISA assay; type: functional
[8] = tested on: HepG2; test: Induction of apoptosis in human HepG2 cells assessed as fold increase in BAX expression by ELISA assay; type: functional
[9] = tested on: MCF7; test: Induction of apoptosis in human MCF7 cells assessed as fold increase in caspases-3 expression by ELISA assay; type: functional
[10] = tested on: HCT-116; test: Induction of apoptosis in human HCT-116 cells assessed as fold increase in caspases-3 expression by ELISA assay; type: functional
[11] = tested on: HepG2; test: Induction of apoptosis in human HepG2 cells assessed as fold increase in caspases-3 expression by ELISA assay; type: functional
[12] = tested on: MCF7; test: Induction of apoptosis in human MCF7 cells assessed as fold increase in caspases-7 expression by ELISA assay; type: functional
[13] = tested on: HCT-116; test: Induction of apoptosis in human HCT-116 cells assessed as fold increase in caspases-7 expression by ELISA assay; type: functional
[14] = tested on: HepG2; test: Induction of apoptosis in human HepG2 cells assessed as fold increase in caspases-7 expression by ELISA assay; type: functional
[15] = tested on: HCT-116; test: Induction of cell cycle arrest in human HCT-116 cells assessed as accumulation at sub-G1 phase by PI-staining based flow cytometry (reference value: 12%); type: functional
[16] = tested on: HepG2; test: Induction of cell cycle arrest in human HepG2 cells assessed as accumulation at G0/G1 phase by PI-staining based flow cytometry (reference value: 35.2%); type: functional
[17] = tested on: MCF7; test: Induction of cell cycle arrest in human MCF7 cells assessed as accumulation at G0/G1 phase by PI-staining based flow cytometry (reference value: 40.8%); type: functional
[18] = tested on: HCT-116; test: Induction of cell cycle arrest in human HCT-116 cells assessed as accumulation at G0/G1 phase by PI-staining based flow cytometry (reference value: 47%); type: functional
[19] = tested on: HepG2; test: Induction of cell cycle arrest in human HepG2 cells assessed as accumulation at S phase by PI-staining based flow cytometry (reference value: 5.8%); type: functional
[20] = tested on: MCF7; test: Induction of cell cycle arrest in human MCF7 cells assessed as accumulation at S phase by PI-staining based flow cytometry (reference value: 6.3%); type: functional
[21] = tested on: HCT-116; test: Induction of cell cycle arrest in human HCT-116 cells assessed as accumulation at S phase by PI-staining based flow cytometry (reference value: 7.1%); type: functional
[22] = tested on: HepG2; test: Induction of cell cycle arrest in human HepG2 cells assessed as accumulation at G2/M phase by PI-staining based flow cytometry (reference value: 41.5%); type: functional
[23] = tested on: MCF7; test: Induction of cell cycle arrest in human MCF7 cells assessed as accumulation at G2/M phase by PI-staining based flow cytometry (reference value: 35.3%); type: functional
[24] = tested on: HCT-116; test: Induction of cell cycle arrest in human HCT-116 cells assessed as accumulation at G2/M phase by PI-staining based flow cytometry (reference value: 29.2%); type: functional
[25] = tested on: HepG2; test: Induction of cell cycle arrest in human HepG2 cells assessed as accumulation at sub-G1 phase by PI-staining based flow cytometry (reference value: 12.6%); type: functional
[26] = tested on: MCF7; test: Induction of cell cycle arrest in human MCF7 cells assessed as accumulation at sub-G1 phase by PI-staining based flow cytometry (reference value: 13.2%); type: functional
[27] = molecular target: Histone deacetylase 1 (Homo sapiens, UniProt Q13547); test: Inhibition of HDAC1 (unknown origin) by ELISA assay
Histone deacetylase 1, sequence (Q13547 whole entry): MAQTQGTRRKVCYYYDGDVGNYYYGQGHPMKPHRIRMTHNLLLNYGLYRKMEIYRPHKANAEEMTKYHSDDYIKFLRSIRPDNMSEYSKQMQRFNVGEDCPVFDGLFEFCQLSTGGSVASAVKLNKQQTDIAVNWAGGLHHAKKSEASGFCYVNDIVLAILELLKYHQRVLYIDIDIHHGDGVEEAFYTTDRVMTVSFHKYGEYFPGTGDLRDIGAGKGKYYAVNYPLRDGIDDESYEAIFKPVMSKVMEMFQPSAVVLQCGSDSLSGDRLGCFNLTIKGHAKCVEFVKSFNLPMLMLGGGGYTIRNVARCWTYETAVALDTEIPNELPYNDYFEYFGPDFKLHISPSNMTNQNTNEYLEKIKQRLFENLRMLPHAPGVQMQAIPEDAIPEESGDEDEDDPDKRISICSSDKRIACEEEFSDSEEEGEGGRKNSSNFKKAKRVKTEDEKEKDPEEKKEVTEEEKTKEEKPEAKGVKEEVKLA

[28] = molecular target: Histone deacetylase 2 (Homo sapiens, UniProt Q92769); test: Inhibition of HDAC2 (unknown origin) by ELISA assay
Histone deacetylase 2, sequence (Q92769 whole entry): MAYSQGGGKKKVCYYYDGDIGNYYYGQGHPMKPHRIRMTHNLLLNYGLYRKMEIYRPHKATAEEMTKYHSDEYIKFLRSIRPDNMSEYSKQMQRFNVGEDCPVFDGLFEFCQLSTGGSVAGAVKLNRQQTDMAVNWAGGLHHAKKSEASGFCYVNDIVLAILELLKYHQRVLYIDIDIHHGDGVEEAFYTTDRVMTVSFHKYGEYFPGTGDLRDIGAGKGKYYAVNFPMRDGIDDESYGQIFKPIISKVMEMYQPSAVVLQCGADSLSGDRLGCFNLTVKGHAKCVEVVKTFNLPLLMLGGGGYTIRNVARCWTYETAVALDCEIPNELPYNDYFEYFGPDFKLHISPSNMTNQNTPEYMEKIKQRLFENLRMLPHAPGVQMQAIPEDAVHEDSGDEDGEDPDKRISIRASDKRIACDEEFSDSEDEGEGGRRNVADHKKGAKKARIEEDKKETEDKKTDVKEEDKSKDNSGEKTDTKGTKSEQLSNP

[29] = molecular target: T1, Histone deacetylase 8 (Homo sapiens, UniProt Q9BY41); test: Inhibition of HDAC8 (unknown origin) by ELISA assay
T1 sequence (Q9BY41 whole entry): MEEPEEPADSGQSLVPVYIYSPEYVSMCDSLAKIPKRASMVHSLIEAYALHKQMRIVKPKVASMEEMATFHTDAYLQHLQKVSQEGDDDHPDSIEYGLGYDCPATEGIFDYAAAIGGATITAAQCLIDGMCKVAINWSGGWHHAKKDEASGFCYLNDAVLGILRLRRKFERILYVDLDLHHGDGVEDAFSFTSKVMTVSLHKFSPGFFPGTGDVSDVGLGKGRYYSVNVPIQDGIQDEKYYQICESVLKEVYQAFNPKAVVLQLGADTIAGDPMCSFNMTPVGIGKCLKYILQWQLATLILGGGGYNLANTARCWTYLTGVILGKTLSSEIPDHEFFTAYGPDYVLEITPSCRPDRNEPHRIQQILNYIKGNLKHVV

[30] = molecular target: T2, Protein deacetylase HDAC6 (Homo sapiens, UniProt Q9UBN7); test: Inhibition of HDAC6 (unknown origin) by ELISA assay
T2 sequence (Q9UBN7 whole entry): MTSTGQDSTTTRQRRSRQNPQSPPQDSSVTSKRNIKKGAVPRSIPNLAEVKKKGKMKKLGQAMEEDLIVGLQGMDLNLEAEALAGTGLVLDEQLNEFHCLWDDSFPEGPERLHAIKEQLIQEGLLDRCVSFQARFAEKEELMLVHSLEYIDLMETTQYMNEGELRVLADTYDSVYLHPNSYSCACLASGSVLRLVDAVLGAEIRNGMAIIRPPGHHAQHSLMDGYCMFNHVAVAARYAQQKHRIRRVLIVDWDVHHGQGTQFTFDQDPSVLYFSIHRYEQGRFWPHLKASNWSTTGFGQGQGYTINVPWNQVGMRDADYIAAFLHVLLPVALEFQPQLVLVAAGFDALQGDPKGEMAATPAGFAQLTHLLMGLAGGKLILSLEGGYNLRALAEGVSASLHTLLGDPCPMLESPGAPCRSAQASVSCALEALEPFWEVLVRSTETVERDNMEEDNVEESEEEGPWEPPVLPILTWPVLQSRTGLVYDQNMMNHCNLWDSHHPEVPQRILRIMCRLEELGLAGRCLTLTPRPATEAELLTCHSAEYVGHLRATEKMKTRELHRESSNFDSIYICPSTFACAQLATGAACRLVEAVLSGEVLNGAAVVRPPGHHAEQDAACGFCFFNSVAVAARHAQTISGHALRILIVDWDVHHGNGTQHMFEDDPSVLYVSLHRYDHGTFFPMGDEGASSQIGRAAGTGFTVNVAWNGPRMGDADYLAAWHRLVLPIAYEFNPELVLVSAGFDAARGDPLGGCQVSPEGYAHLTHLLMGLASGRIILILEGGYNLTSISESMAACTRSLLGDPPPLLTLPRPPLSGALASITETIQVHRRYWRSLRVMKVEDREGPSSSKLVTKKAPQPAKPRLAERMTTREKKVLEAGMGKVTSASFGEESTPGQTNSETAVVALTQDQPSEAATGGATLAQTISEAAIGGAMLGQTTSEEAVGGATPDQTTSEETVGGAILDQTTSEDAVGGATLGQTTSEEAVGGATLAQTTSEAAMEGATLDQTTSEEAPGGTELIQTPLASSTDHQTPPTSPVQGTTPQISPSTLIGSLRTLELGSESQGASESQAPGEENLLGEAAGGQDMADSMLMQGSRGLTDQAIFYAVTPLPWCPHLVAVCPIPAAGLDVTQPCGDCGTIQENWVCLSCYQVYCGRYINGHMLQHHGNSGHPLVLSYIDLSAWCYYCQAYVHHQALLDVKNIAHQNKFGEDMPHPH

[31] = in vitro; settings: human, WI-38 cells
Description: Cytotoxicity against human WI-38 cells assessed as inhibition of cell growth measured after 48 hrs by MTT assay

SMILES: COc1ccc(/C=C2\SC(=O)N(CCNC(=O)Nc3c(C)n(C)n(-c4ccccc4)c3=O)C2=O)cc1
IC50 [1]: 8.37 µM
IC50 [2]: 3.16 µM
IC50 [3]: 5.14 µM
IC50 [4]: 13.9 µM
IC50 [5]: 6.18 µM
fold change (FC) [6]: 7.013
fold change (FC) [7]: 4.9
fold change (FC) [8]: 13.13
fold change (FC) [9]: 5.2
fold change (FC) [10]: 3.9
fold change (FC) [11]: 5.2
fold change (FC) [12]: 6.6
fold change (FC) [13]: 3.7
fold change (FC) [14]: 9.1
Activity [15]: 39.5%
Activity [16]: 50.6%
Activity [17]: 60.6%
Activity [18]: 55.2%
Activity [19]: 1.6%
Activity [20]: 4.8%
Activity [21]: 1.6%
Activity [22]: 0%
Activity [23]: 0.2%
Activity [24]: 0%
Activity [25]: 43.4%
Activity [26]: 31.7%
IC50 [27]: 281 nM
IC50 [28]: 834 nM
IC50 [29]: 517 nM
IC50 [30]: 258 nM
IC50 at 48 h [31]: 34.5 µM

SMILES: Cc1c(NC(=O)NCCN2C(=O)S/C(=C\c3ccc(Br)cc3)C2=O)c(=O)n(-c2ccccc2)n1C
IC50 [1]: 52.3 µM
IC50 [2]: 78.1 µM
IC50 [3]: 58.1 µM
IC50 [4]: > 100 µM
IC50 [5]: 72.6 µM
IC50 at 48 h [31]: > 100 µM

SMILES: Cc1ccc(/C=C2\SC(=O)N(CCNC(=O)Nc3c(C)n(C)n(-c4ccccc4)c3=O)C2=O)cc1
IC50 [1]: 25.7 µM
IC50 [2]: 32.7 µM
IC50 [3]: 37.4 µM
IC50 [4]: 58.6 µM
IC50 [5]: 22.4 µM
IC50 at 48 h [31]: 48.1 µM

Continued, in another order:

IC50 [1]: 38.8 µM
IC50 [2]: 36.3 µM
IC50 [3]: 46.9 µM
IC50 [5]: 29.4 µM
IC50 at 48 h [31]: 27.5 µM
SMILES: Cc1c(NC(=O)NCCN2C(=O)S/C(=C\c3ccc(Cl)cc3)C2=O)c(=O)n(-c2ccccc2)n1C
IC50 [4]: 40.1 µM

IC50 [1]: 84.3 µM
IC50 [2]: 91.3 µM
IC50 [3]: 82.4 µM
IC50 [5]: 77.2 µM
IC50 at 48 h [31]: 43.8 µM
SMILES: Cc1c(NC(=O)CN2C(=O)S/C(=C\c3ccc([N+](=O)[O-])cc3)C2=O)c(=O)n(-c2ccccc2)n1C
IC50 [4]: > 100 µM

IC50 [1]: 68.5 µM
IC50 [2]: 70.3 µM
IC50 [3]: 75.6 µM
IC50 [5]: 64.8 µM
IC50 at 48 h [31]: 52.9 µM
SMILES: COc1ccc(/C=C2\SC(=O)N(CC(=O)Nc3c(C)n(C)n(-c4ccccc4)c3=O)C2=O)cc1
IC50 [4]: 93.7 µM
